Test results from US20100279409A1, “METHOD FOR MODIFYING CELLUAR IMMUNE RESONSE BY MODULATING ACTIVIN ACTIVITY” (priority 2007, published 2010).

Key:
[1] = test system: Human NK cells; assay: Intracellular cytokine staining of IFN-γ in NK cells; assay type: cell-based; conditions: 16 hours, BFA 1 μg/ml
Description: In these experiments 1×10^5 highly purified human NK cells were cultured as above, but were cultured with Poly I:C (10 μg/ml), or LPS (100 ng/ml), with or without 10, 50, or 100 ng/ml of recombinant human activin-A. In some cases, the known compound “SB431542,” which blocks activin-A binding to receptors was added. IFN-γ was then measured via ELISA, or by intracellular cytokine staining after 16 hours of culture, via addition of 1 μg/ml BFA, to prevent cytokine release.
In additional follow up experiments, the NK cells were stimulated with IL-2 or the combination of IL-2 and IL-12, plus poly I:C or LPS, for 16 hours, in the presence of 1 μg/ml of BFA, before a standard ICS assay was carried out via flow cytometry.

[2] = test system: NK cells; assay: Flow cytometry of CD25 and CD56 on NK cells; assay type: cell-based, human
Description: As above, 1×10^5 purified NK cells were cultured in 96 well-plates in media that had been supplemented with IL-2 and IL-12, either with or without the addition of TLR ligands, in the presence of activin-A (100 ng/ml).
After 24 hours, […] were collected, and stained with anti-CD25 antibodies, with expression being determined by flow cytometry.

[3] = test system: NK cells; assay: NKp30 expression on NK cells by flow cytometry; assay type: cell-based, human; conditions: NK cells after 3 day culture, 100 ng/ml
Description: In order to investigate the mechanism behind these differences, the same NK cells were purified and cryopreserved immediately after the 3 day culture period. The cells were thawed, washed, and stained for NCR. NKp30, with expression levels determined via flow cytometry. The level of expression was also determined using “ex vivo” samples, and NK cells that were cultured, without exposure to targets.

## activin-A
[1]
  number of IFN-γ producing cells: not due to a decrease in the number of IFN-γ producing cells
[1]; listed as Activin-A
  number of IFN-γ producing cells: did not effect these populations
[2]; Example 16
  downregulation of CD56: suppressed
  upregulation of CD25: suppressed
[2]; IL-2 and IL-12 with or without TLR ligands, activin-A 100 ng/ml, 24 hours
  CD25 expression: significantly suppressed
[3]
  NKp30 expression: a very limited effect
